Source: patent publication US6673937B2, “Syntheses and methods of use of new antimitotic agents” (The University of Pittsburgh, priority 2000, dated 2004)
Read-outs that look alike come from different tables or passages of the source.

Tests used:
MDA-MB-231 cells = test: Antiproliferative assay, MDA-MB-231 cells; format: cell-based, human; settings: 72 hours; for IC50: read-out: MDA-MB-231 50% cell growth inhibition; for sensitivity of MDA-MB-231 cells, in words: FIG. 23 Panel B
Source text: MDA-MB-231 cells, which were also derived from an adenocarcinoma of the breast, are less differentiated than the MCF-7 cells and fail to express functional p53 or estrogen receptors. This class of tumor cells contains important targets for new therapies, because loss of estrogen receptor expression is associated with poor patient prognosis. (Osborne, C. K. Breast Cane. Res. Treatm. 1998, 51, 227).
The inventors extrapolated to determine the IC50 for compounds with little cytotoxicity at 30,μM, the highest concentration tested. […] The enhanced sensitivity of MCF-7 to these compounds may be due to the expression of p53 in these cells.
(§1) Two compounds, 24 referred to herein as SR-4 and 27 referred to herein as SR-7, were examined in greater detail as to their effects on biological activity. The proliferation of MCF-7, MDA-MB-231 and SV40 transformed mouse embryonic fibroblasts was measured by a previously described colorimetric assay (Wipf P, Jung J-K, Rodriguez S, Lazo JS Synthesis and biological evaluation of Deoxypreussomerin A and Palmarumycin CP 1 and related naphthoquinone spiroketals. Tetrahedron 57:283-296, 2001 and Vogt A, Rice RL, Settineri CE, Yokokawa F, Yokokawa S, Wipf P and Lazo JS (1998) Disruption of insulin-like growth factor-I signaling and down-regulation of Cdc2 by SC-ααδ9, a novel small molecule antisignaling agent identified in a targeted array library. J Pharmacol Exptl Therap 287:806-813.). Briefly, the inventors seeded 4,000-6,000 cells per well in microtiter plates. Cells were allowed to attach overnight and treated with vehicle or compounds for 72 h, after which the medium was replaced with serum free medium containing 0.1% 3-[4,5-dimethylthiazol-2-yl]-2,5-diphenyl tetrazolium bromide. Plates were incubated for 3 hours in the dark and total cell number was determined by spectrophotometrically at 540 nm as previously described (Vogt A, Rice RL, Settineri CE, Yokokawa F, Yokokawa S, Wipf P and Lazo JS (1998) Disruption of insulin-like growth factor-1 signaling and down-regulation of Cdc2 by SC-ααδ9, a novel small molecule antisignaling agent identified in a targeted array library. J Pharmacol Exptl Therap 287:806-813.). […] Cells were maintained in RPMI 1640 medium containing 10% fetal bovine serum and the paclitaxel-resistant cells also contained 17 nM paclitaxel and 10 μM verapamil. Cells were plated (2,000/well) in 96-well plates and allowed to attach and grow for 72 hours (paclitaxel and verapamil were removed from resistant cell medium two weeks prior to this plating). They were then treated with 0.5% DMSO vehicle control or 0.08-10 μM compound. The number of cells was determined spectrophotometrically at 490 nm minus absorbance at 630 nm after exposure to 3-(4,5-dimethylthiazol-2-yl)-5-(3-carboxymethoxyphenyl)-2-(4-sulfophenyl)-2H-tetrazolium and N-methyldibenzopyurazine methyl sulfate.
Because of the potential importance of the tumor suppressor gene p53 and the estrogen receptor in controlling the cellular response to cytotoxic agents, the inventors also examined the sensitivity of MDA-MB-231 cells, which lack functional p53 and estrogen receptors. […] As might be expected, these p53 and estrogen receptor deficient cells were generally less sensitive to both natural products and analogs when compared to MCF-7 cells.

TrxR = target: T1, TrxR (Homo sapiens, UniProt Q16881); test: Thioredoxin reductase (TrxR) DTNB reduction assay; format: biochemical; settings: calculated from 5 concentrations (0.1 to 50 μM)
T1 construct: Thioredoxin reductase was purified from human placenta as previously described; from tissue; host or cells: human placenta
T1 sequence (Q16881 1-499 isoform Q16881-5): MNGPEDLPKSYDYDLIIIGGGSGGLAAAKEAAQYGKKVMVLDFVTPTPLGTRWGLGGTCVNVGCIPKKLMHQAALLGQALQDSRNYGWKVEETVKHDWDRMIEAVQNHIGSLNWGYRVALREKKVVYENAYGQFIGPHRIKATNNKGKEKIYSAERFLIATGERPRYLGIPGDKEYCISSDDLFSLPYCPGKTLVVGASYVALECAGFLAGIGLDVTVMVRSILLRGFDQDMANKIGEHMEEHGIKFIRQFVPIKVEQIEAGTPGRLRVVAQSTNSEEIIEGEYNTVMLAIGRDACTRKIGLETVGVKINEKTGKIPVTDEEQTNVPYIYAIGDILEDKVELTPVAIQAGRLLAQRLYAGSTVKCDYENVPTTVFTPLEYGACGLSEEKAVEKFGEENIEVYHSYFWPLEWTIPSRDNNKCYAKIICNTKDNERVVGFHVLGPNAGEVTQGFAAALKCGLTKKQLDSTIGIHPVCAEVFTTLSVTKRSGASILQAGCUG
Protocol: Thioredoxin reductase was purified from human placenta as previously described (Oblong, J.E.; Gasdaska, P.Y.; Sherrill, K.; Powis,G. Biochemistry 1993, 32, 7271) and recombinant human Trx-1 was prepared as previously described (Gasdaska, P.Y.; Oblong, J.E.; Cotgreave, I.A.; Powis,G. Biochem.Biophys.Acta 1994 ,1218 ,292). TrxR and Trx-1/TrxR activities were measured spectrophotometrically using previously published microtiter plate colorimetric assays, based on the increase in absorbance at 405 nm which occurs as dithionitrobenzoic acid (DTNB) is reduced by the enzyme-mediated transfer of reducing equivalents from NADPH (Gasdaska et al., Biochem.Biophys.Acta 1994 ,1218,292). Trx-1/TrxR-dependent insulin reducing activity was measured in an incubation with a final volume of 60 μL containing 100 mM HEPES buffer, pH 7.2,5 mM EDTA (HE buffer),1 mM NADPH, […],0.8 μM Trx-1 and 2.5 mg/mL bovine insulin. Incubations were for 30 min at 37 ° C. in flat-bottom 96-well microtiter plates. The reaction was stopped by the addition of 100 μL of 6 M guanidine-HC1, 50 mM Tris, pH 8.0, and 10 mM DTNB, and the absorbance measured to 405 nm. TrxR activity was measured in a final incubation volume of 60 μL containing HE buffer, 10 mM DTNB, 1.0 μM TrxR and 1 mM NADPH. Compounds were diluted in HE buffer and added to the wells as 20 μL aliquots, and TrxR was then added,also as 20 μL aliquots in HE buffer. To start the reaction NADPH and DTNB were added as a 20 μL aliquot in HE buffer and the plate was moved to the plate reader which had been preheated to 37 ° C. The optical density at 405 nm was measured every 10 s and initial reaction rates were measured.

[1] = test system: mouse embryonic fibroblasts transformed with SV40 large T antigen; test: Proliferation of SV40 transformed mouse embryonic fibroblasts; format: cell-based; settings: Mus musculus, Fibroblast; data not shown; read-out: concentration required to inhibit growth by 50%
Protocol: as §1, with “Cells were plated (2,000/well) in 96-well plates and allowed to attach and grow for 72 hours (paclitaxel and verapamil were removed from resistant cell medium two weeks prior to this plating). They were then treated with 0.5% DMSO vehicle control or 0.08-10 μM compound.” left out, “sulfate. […]” for “sulfate.”

VHR = VHR (Homo sapiens, UniProt P51452); test: In vitro inhibition of VHR; format: biochemical; settings: 30 μM, data not shown
VHR, sequence (P51452 whole entry, species assumed): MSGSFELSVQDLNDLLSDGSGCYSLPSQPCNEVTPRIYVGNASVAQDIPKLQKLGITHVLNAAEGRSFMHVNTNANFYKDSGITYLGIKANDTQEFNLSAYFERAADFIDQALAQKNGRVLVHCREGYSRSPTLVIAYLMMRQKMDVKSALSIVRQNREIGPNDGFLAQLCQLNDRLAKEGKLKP

O=C1C=CC2(Oc3cccc4cccc(c34)O2)c2cccc(OCc3ccncc3)c21 [SR-13, 8-(pyridin-4-ylmethoxy)-1-oxo-1,4-dihydronaphthalene-4-spiro-2′-naphtol [1″,8″-de][1′,3′] dioxin]
IC50 (MDA-MB-231 cells; Homo sapiens, MDA-MB-231): 7300 nM
IC50 (TrxR): > 50000 nM

O=C1C=CC2(OCCO2)c2cccc(O)c21 [TH-169]
IC50 (MDA-MB-231 cells; Homo sapiens, MDA-MB-231): 4300 nM
IC50 (TrxR): 8800 nM

C/C=C/COc1cccc2c1C(=O)C=CC21Oc2cccc3cccc(c23)O1 [SR-2, (E)-8-(but-2-enyloxy)-1-oxo-1,4-dihydronaphthalene-4-spiro-2′-naphto [1″,8″-de][1′,3′]dioxin]
IC50 (MDA-MB-231 cells; Homo sapiens, MDA-MB-231): 2900 nM

C=CCOc1cccc2c1C(=O)C=CC21Oc2cccc3cccc(c23)O1 [SR-14, 8-allyloxy-1-oxo-1,4-dihydronaphthalene-4-spiro-2′-naphto [1″,8″-de][1′,3′] dioxin]
IC50 (MDA-MB-231 cells; Homo sapiens, MDA-MB-231): 2700 nM
IC50 (TrxR): > 50000 nM

O=C1C=CC2(Oc3cccc4cccc(c34)O2)c2cccc(OCc3ccco3)c21 [SR-7, 8-(furan-2-ylmethoxy)-1-oxo-1,4-dihydronaphthalene-4-spiro-2′-naphto [1″,8″-de][1′,3′] dioxin]
sensitivity of MDA-MB-231 cells, in words (MDA-MB-231 cells): equally sensitive
IC50 (MDA-MB-231 cells; Homo sapiens, MDA-MB-231): 2500 nM
IC50 [1]: 3000 nM
inhibition of VHR activity (VHR): no inhibition

O=C1C=CC2(Oc3cccc4cccc(c34)O2)c2cccc(OC/C=C/c3ccccc3)c21 [SR-1, (E)-8-(3-phenyl-allyloxy)-1-oxo-1,4-dihydronaphthalene-4-spiro-2′-naphto[1″, 8″-de] [1′,3′] dioxin]
IC50 (MDA-MB-231 cells; Homo sapiens, MDA-MB-231): 7500 nM

O=C1C=CC2(Oc3cccc4cccc(c34)O2)c2cccc(OCc3cccnc3)c21 [SR-12, 8-(pyridin-3-ylmethoxy)-1-oxo-1,4-dihydronaphthalene-4-spiro-2′-naphto [1″,8″-de][1′,3′] dioxin]
IC50 (MDA-MB-231 cells; Homo sapiens, MDA-MB-231): 1400 nM
IC50 (TrxR): > 50000 nM

COc1ccc(COc2cccc3c2C(=O)C=CC32Oc3cccc4cccc(c34)O2)cc1 [TH-39, 8-(4-methoxy-benzyloxy)-1-oxo-1,4-dihydronaphthalene4-spiro-2-naphto [1,8-de][1, 3]dioxin]
IC50 (MDA-MB-231 cells; Homo sapiens, MDA-MB-231): 2200 nM
IC50 (TrxR): > 50000 nM

COc1cccc(COc2cccc3c2C(=O)C=CC32Oc3cccc4cccc(c34)O2)c1 [SR-5, 8-(3-methoxy-benzyloxy)-1-oxo-1,4-dihydronaphthalene-4-spiro-2′-naphto [1″,8″-de][1′,3′] dioxin]
IC50 (MDA-MB-231 cells; Homo sapiens, MDA-MB-231): 2700 nM

O=C1C=CC2(Oc3cccc4cccc(c34)O2)c2cccc(OCc3ccoc3)c21 [SR-10, 8-(furan-3-ylmethoxy)-1-oxo-1,4-dihydronaphthalene-4-spiro-2′-naphto [1′,8′-de][1′,3′] dioxin]
IC50 (MDA-MB-231 cells; Homo sapiens, MDA-MB-231): 2000 nM
IC50 (TrxR): > 50000 nM

CC(C)=CCC/C(C)=C/COc1cccc2c1C(=O)C=CC21Oc2cccc3cccc(c23)O1 [SR-9, (E,E)-8-(3,7-diemthyl-octa-2,6-dienyloxy)-1-oxo-1,4-dihydronaphthalene-4-spiro-2′-naphtol [1″,8″-de][1′,3′] dioxin]
IC50 (MDA-MB-231 cells; Homo sapiens, MDA-MB-231): 2000 nM

O=C1C=CC2(Oc3cccc4cccc(c34)O2)c2cccc(OCCc3ccccc3)c21 [SR-6, 8-(2-phenyl-ethoxy)-1-oxo-1,4-dihydronaphthalene-4-spiro-2′-naphto [1″,8″-de][1′,3′] dioxin]
IC50 (MDA-MB-231 cells; Homo sapiens, MDA-MB-231): 4600 nM

O=C1C=CC2(Oc3cccc4cccc(c34)O2)c2cccc(O)c21 [palmarumycin CP1, 8-hydroxy-1-oxo-1,4-dihydronaphthalene-4-spiro-2′-naphtho[1″,8″-de] [1′,3′] dioxin, reference compound]
sensitivity of MDA-MB-231 cells, in words (MDA-MB-231 cells): equally sensitive
IC50 (MDA-MB-231 cells; Homo sapiens, MDA-MB-231): 2400 nM
IC50 [1]: 3000 nM
IC50 (TrxR): 12000 nM

CCCCCCOc1cccc2c1C(=O)C=CC21Oc2cccc3cccc(c23)O1 [SR-3, 8-hexyloxy-1-oxo-1,4-dihydronaphthalene-4-spiro-2′-naphto [1″,8″-de] [1′,3′] dioxin]
IC50 (MDA-MB-231 cells; Homo sapiens, MDA-MB-231): 13600 nM

O=C1C=CC2(Oc3cccc4cccc(c34)O2)c2cccc(OCc3ccccn3)c21 [SR-11, 8-(pyridin-2-ylmethoxy)-1-oxo-1,4-dihydronaphthalene-4-spiro-2′-naphto [1″,8″-de][1′,3′] dioxin]
IC50 (MDA-MB-231 cells; Homo sapiens, MDA-MB-231): 2800 nM
IC50 (TrxR): > 50000 nM

COc1cccc2c1C(=O)C=CC21OCCCO1 [TH-223]
IC50 (MDA-MB-231 cells): 5000 nM
IC50 (TrxR): > 50000 nM
